Data published in PubChem BioAssay (NCI).
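Step 1: Grow cells in 96-well plates. Step 2: Expose to compound for 48 hours at 5 concentrations. Step 3: Interpolate endpoints linearly; if unreached, use highest concentration. TGI marks complete inhibition of growth.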

Tests used:
Test in all cases: NCI anticancer screen, dose series, 48 h
CAKI-1 renal = tested on: CAKI-1 renal
HCC-2998 colon = tested on: HCC-2998 colon
SK-MEL-2 melanoma = tested on: SK-MEL-2 melanoma
IGROV1 ovarian = tested on: IGROV1 ovarian
RXF 393 renal = tested on: RXF 393 renal
ACHN renal = tested on: ACHN renal
SNB-19 CNS = tested on: SNB-19 CNS
UACC-62 melanoma = tested on: UACC-62 melanoma
M14 melanoma = tested on: M14 melanoma
NCI-H23 lung = tested on: NCI-H23 lung

Work on `CCOC(=O)C(NC(=O)c1cccc(Cl)c1)(Nc1cccc(C)c1)C(F)(F)F` (stereo not drawn) yielded a TGI (CAKI-1 renal) of 47.5 µM, a TGI (HCC-2998 colon) of 31.4 µM and a TGI (SK-MEL-2 melanoma) of 31.8 µM. It also gave a TGI (IGROV1 ovarian) of 34.8 µM, a TGI (RXF 393 renal) of 26.2 µM and a TGI (ACHN renal) of 29.8 µM. For the same molecule, the TGI (SNB-19 CNS) was over 100 µM and the TGI (UACC-62 melanoma) was 28.5 µM.

`O=C(c1ccc([N+](=O)[O-])cc1)N1CCCC1` showed a TGI (CAKI-1 renal) of over 100 µM, a TGI (HCC-2998 colon) of over 100 µM and a TGI (IGROV1 ovarian) of over 100 µM. The TGI (RXF 393 renal) was over 100 µM, the TGI (ACHN renal) was over 100 µM and the TGI (SNB-19 CNS) was over 100 µM. It also gave a TGI (M14 melanoma) of over 100 µM, a TGI (UACC-62 melanoma) of over 100 µM and a TGI (NCI-H23 lung) of over 100 µM.

Work on `CC(=O)Oc1ccc2c(-c3ccccc3)c(Oc3ccc(Cl)cc3)c(=O)oc2c1` yielded a TGI (CAKI-1 renal) of 32.3 µM, a TGI (HCC-2998 colon) of 19.7 µM and a TGI (IGROV1 ovarian) of 29.4 µM. For the same molecule, the TGI (RXF 393 renal) was 33.2 µM, the TGI (ACHN renal) was 30.5 µM and the TGI (SNB-19 CNS) was 30 µM. For the same molecule, the TGI (M14 melanoma) was 37 µM and the TGI (NCI-H23 lung) was 44.6 µM.

Molecule `CCOC(=O)N1CCN(c2c(N)nc(C)[nH]c2=O)CC1` has a TGI (HCC-2998 colon) of over 100 µM, a TGI (SK-MEL-2 melanoma) of over 100 µM and a TGI (ACHN renal) of over 100 µM. For the same molecule, the TGI (SNB-19 CNS) was over 100 µM, the TGI (M14 melanoma) was over 100 µM and the TGI (NCI-H23 lung) was over 100 µM.

`CN1C2=Nc3n(c4ccccc4[n+]3C)CN2c2ccccc21` showed a TGI (CAKI-1 renal) of over 100 µM, a TGI (SK-MEL-2 melanoma) of 41.8 µM and a TGI (IGROV1 ovarian) of over 100 µM. It also gave a TGI (ACHN renal) of over 100 µM, a TGI (SNB-19 CNS) of over 100 µM and a TGI (M14 melanoma) of over 100 µM. The TGI (UACC-62 melanoma) was 42.6 µM and the TGI (NCI-H23 lung) was over 100 µM.

Work on `C=C1C[C@@H]2O[C@H]3[C@H]4[C@@H](C[C@@H](C)[C@@H](OC(C)=O)[C@H]42)[C@@H](C)CO[C@@]3(C)[C@H](OC(=O)CCCCCCC)CC1=O` yielded a TGI (CAKI-1 renal) of 33.5 µM, a TGI (HCC-2998 colon) of 30.8 µM and a TGI (SK-MEL-2 melanoma) of 35 µM. The TGI (IGROV1 ovarian) was 48.4 µM, the TGI (ACHN renal) was 29.5 µM and the TGI (SNB-19 CNS) was over 100 µM. It also gave a TGI (M14 melanoma) of 29.1 µM, a TGI (UACC-62 melanoma) of 32.1 µM and a TGI (NCI-H23 lung) of 40.1 µM.

Molecule `CC1(C)OCC(C2OC(C)(C)OC2[C@H]2O[C@@]3(O)[C@H]4[C@H](C=CC[C@@H]42)[C@@H](OCc2ccccc2)[C@H](OCc2ccccc2)[C@H]3OCc2ccccc2)O1` (stereo partly drawn) has a TGI (CAKI-1 renal) of over 100 µM, a TGI (SK-MEL-2 melanoma) of 98.5 µM and a TGI (IGROV1 ovarian) of over 100 µM. For the same molecule, the TGI (RXF 393 renal) was 82.1 µM, the TGI (ACHN renal) was over 100 µM and the TGI (SNB-19 CNS) was over 100 µM. It also gave a TGI (M14 melanoma) of over 100 µM, a TGI (UACC-62 melanoma) of over 100 µM and a TGI (NCI-H23 lung) of over 100 µM.

For `NCCCCNCCCN1CCOC1=O`, the TGI (CAKI-1 renal) was over 100 µM, the TGI (HCC-2998 colon) was over 100 µM and the TGI (SK-MEL-2 melanoma) was over 100 µM. It also gave a TGI (IGROV1 ovarian) of over 100 µM, a TGI (ACHN renal) of over 100 µM and a TGI (SNB-19 CNS) of over 100 µM. It also gave a TGI (M14 melanoma) of over 100 µM, a TGI (UACC-62 melanoma) of over 100 µM and a TGI (NCI-H23 lung) of over 100 µM.

`Cc1cc(-c2cc(C(C)(C)C)c(O)c(C(C)(C)C)c2)c(C)cc1-c1cc(C(C)(C)C)c(O)c(C(C)(C)C)c1` gave a TGI (CAKI-1 renal) of over 100 µM, a TGI (SK-MEL-2 melanoma) of over 100 µM and a TGI (IGROV1 ovarian) of over 100 µM. The TGI (ACHN renal) was over 100 µM, the TGI (SNB-19 CNS) was over 100 µM and the TGI (M14 melanoma) was over 100 µM. The TGI (UACC-62 melanoma) was over 100 µM and the TGI (NCI-H23 lung) was over 100 µM.

`C=CN(C=C)C(=O)Cn1cc(-c2ccccc2)nn1` was tested, and the TGI (CAKI-1 renal) was over 100 µM, the TGI (HCC-2998 colon) was over 100 µM and the TGI (SK-MEL-2 melanoma) was over 100 µM. For the same molecule, the TGI (IGROV1 ovarian) was over 100 µM, the TGI (ACHN renal) was over 100 µM and the TGI (SNB-19 CNS) was over 100 µM. For the same molecule, the TGI (M14 melanoma) was over 100 µM and the TGI (NCI-H23 lung) was over 100 µM.

In the case of `c1cncc(CSc2nc3ccccc3nc2-c2cccs2)c1`, the TGI (HCC-2998 colon) is reported as over 100 µM, the TGI (SK-MEL-2 melanoma) is reported as over 100 µM and the TGI (ACHN renal) is reported as over 100 µM. The TGI (SNB-19 CNS) was over 100 µM, the TGI (M14 melanoma) was over 100 µM and the TGI (NCI-H23 lung) was over 100 µM.

`CN(C)CCNCCCNc1c2ccccc2nc2cccc([N+](=O)[O-])c12` was tested, and the TGI (CAKI-1 renal) was 0.331 µM, the TGI (HCC-2998 colon) was under 0.0184 µM and the TGI (SK-MEL-2 melanoma) was 0.0523 µM. For the same molecule, the TGI (IGROV1 ovarian) was 0.173 µM, the TGI (ACHN renal) was 0.0312 µM and the TGI (SNB-19 CNS) was 0.177 µM. The TGI (M14 melanoma) was 0.0654 µM, the TGI (UACC-62 melanoma) was 0.236 µM and the TGI (NCI-H23 lung) was under 0.0186 µM.

`O=C1c2cc3c(cc2CC12Cc1ccc4c(c1C2=O)CCC4)CCC3` (stereo not drawn) showed a TGI (CAKI-1 renal) of over 100 µM, a TGI (HCC-2998 colon) of over 100 µM and a TGI (SK-MEL-2 melanoma) of over 100 µM. The TGI (IGROV1 ovarian) was over 100 µM, the TGI (RXF 393 renal) was over 100 µM and the TGI (ACHN renal) was over 100 µM. It also gave a TGI (SNB-19 CNS) of over 100 µM, a TGI (M14 melanoma) of over 100 µM and a TGI (NCI-H23 lung) of over 100 µM.

With `COc1cc2c(c(OC)c1)[C@H](C)N(Cc1ccccc1)C(C)C2` (stereo partly drawn) the TGI (CAKI-1 renal) was over 100 µM, the TGI (HCC-2998 colon) was over 100 µM and the TGI (IGROV1 ovarian) was over 100 µM. For the same molecule, the TGI (ACHN renal) was over 100 µM, the TGI (SNB-19 CNS) was over 100 µM and the TGI (M14 melanoma) was over 100 µM. It also gave a TGI (UACC-62 melanoma) of over 100 µM and a TGI (NCI-H23 lung) of over 100 µM.

Work on `CC(C)(C)c1ccnc(N=C2N=C(Nc3cc(C(C)(C)C)ccn3)c3ccccc32)c1` yielded a TGI (CAKI-1 renal) of 53.1 µM, a TGI (SK-MEL-2 melanoma) of over 100 µM and a TGI (IGROV1 ovarian) of 72.1 µM. It also gave a TGI (RXF 393 renal) of 54.9 µM, a TGI (ACHN renal) of over 100 µM and a TGI (SNB-19 CNS) of 44.4 µM. It also gave a TGI (M14 melanoma) of over 100 µM, a TGI (UACC-62 melanoma) of over 100 µM and a TGI (NCI-H23 lung) of 94.6 µM.

Work on `CC(C)(C)N=NC(C)(C)N=C=O` yielded a TGI (CAKI-1 renal) of over 100 µM, a TGI (SK-MEL-2 melanoma) of over 100 µM and a TGI (IGROV1 ovarian) of over 100 µM. The TGI (RXF 393 renal) was over 100 µM, the TGI (ACHN renal) was over 100 µM and the TGI (SNB-19 CNS) was over 100 µM. The TGI (M14 melanoma) was over 100 µM, the TGI (UACC-62 melanoma) was over 100 µM and the TGI (NCI-H23 lung) was over 100 µM.

With `CCCn1cc2c3c(cccc31)C1C=C(C)CN(C)C1C2` (stereo not drawn) the TGI (CAKI-1 renal) was 44.2 µM, the TGI (HCC-2998 colon) was 38 µM and the TGI (SK-MEL-2 melanoma) was 63.4 µM. For the same molecule, the TGI (IGROV1 ovarian) was 60.4 µM, the TGI (RXF 393 renal) was 52.7 µM and the TGI (SNB-19 CNS) was 62.1 µM. It also gave a TGI (UACC-62 melanoma) of 55.7 µM and a TGI (NCI-H23 lung) of 61.8 µM.

`Nc1c(N2CCOCC2)c(=O)nc2[nH]/c(=C\c3ccccc3O)c(=O)n12` showed a TGI (CAKI-1 renal) of over 100 µM, a TGI (HCC-2998 colon) of over 100 µM and a TGI (IGROV1 ovarian) of over 100 µM. For the same molecule, the TGI (RXF 393 renal) was over 100 µM, the TGI (ACHN renal) was over 100 µM and the TGI (SNB-19 CNS) was over 100 µM. The TGI (M14 melanoma) was over 100 µM and the TGI (NCI-H23 lung) was over 100 µM.

`CC(C)=C/C(CC(O)(C(F)(F)F)C(F)(F)F)=N\O` was tested, and the TGI (HCC-2998 colon) was over 100 µM, the TGI (IGROV1 ovarian) was over 100 µM and the TGI (RXF 393 renal) was over 100 µM. The TGI (ACHN renal) was over 100 µM, the TGI (SNB-19 CNS) was over 100 µM and the TGI (M14 melanoma) was over 100 µM. For the same molecule, the TGI (UACC-62 melanoma) was over 100 µM and the TGI (NCI-H23 lung) was over 100 µM.

With `CC(=O)/C(=N\Nc1ccc(Cl)cc1)C(C)=Nc1ccc(C)cc1` the TGI (CAKI-1 renal) was over 100 µM, the TGI (SK-MEL-2 melanoma) was 40 µM and the TGI (IGROV1 ovarian) was over 100 µM. For the same molecule, the TGI (RXF 393 renal) was 95.8 µM, the TGI (ACHN renal) was 61.3 µM and the TGI (SNB-19 CNS) was over 100 µM. For the same molecule, the TGI (M14 melanoma) was 58 µM, the TGI (UACC-62 melanoma) was over 100 µM and the TGI (NCI-H23 lung) was over 100 µM.

`N#Cc1c(-c2ccc([N+](=O)[O-])cc2)c(C#N)c(=O)n(NS(=O)(=O)c2ccccc2)c1O` gave a TGI (CAKI-1 renal) of over 100 µM, a TGI (HCC-2998 colon) of over 100 µM and a TGI (SK-MEL-2 melanoma) of over 100 µM. The TGI (IGROV1 ovarian) was over 100 µM, the TGI (RXF 393 renal) was over 100 µM and the TGI (ACHN renal) was over 100 µM. For the same molecule, the TGI (SNB-19 CNS) was 35.5 µM, the TGI (M14 melanoma) was over 100 µM and the TGI (UACC-62 melanoma) was over 100 µM.

`COc1ccc(C2C=C(c3ccc(C)cc3)N(c3ccc(OC)cc3[N+](=O)[O-])C3C(=O)OC(=O)C23)c(OC)c1` (stereo not drawn) showed a TGI (CAKI-1 renal) of over 100 µM, a TGI (HCC-2998 colon) of 79.4 µM and a TGI (SK-MEL-2 melanoma) of over 100 µM. The TGI (IGROV1 ovarian) was 58.1 µM, the TGI (ACHN renal) was 37.3 µM and the TGI (SNB-19 CNS) was over 100 µM. The TGI (M14 melanoma) was over 100 µM, the TGI (UACC-62 melanoma) was over 100 µM and the TGI (NCI-H23 lung) was over 100 µM.
